Data reported in patent publication US6649595B2, “Regulation of biological events using novel compounds” (ARIAD Gene Therapeutics, Inc., priority 1995, dated 2003).
pIC50: −log10 of the molar value. Like-named read-outs stand apart in the source and are kept apart here.

Molecular target: T1, FKBPwt (Homo sapiens, UniProt P62942)
T1 construct: made in house
Assay: Competitive fluorescence polarization (FP) binding assay of rapalogs to FKBP
Details: for fold loss in affinity (vs rapamycin): C24 analogs; for pIC50: read-out: FKBPwt FP binding assay IC50; for IC50: FKBPwt FP binding assay IC50 (nM)

[1] = =IC50/IC50 of rapamycin, Table 4
[2] = =IC50/IC50 of rapamycin, C7 rapalogs

T1 sequence (P62942 whole entry): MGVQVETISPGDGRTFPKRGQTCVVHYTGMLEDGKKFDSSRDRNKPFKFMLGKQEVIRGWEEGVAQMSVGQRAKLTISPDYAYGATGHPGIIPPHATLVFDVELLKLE
Method: Serial 10-fold dilutions of each analog were prepared in 100% ethanol in glass vials and stored on ice. All other manipulations were performed at room temperature. […] Finally, a probe solution was prepared containing 10 nM AP1491 in 0.1% ethanol/FP buffer, and 100 μl added to each well with mixing.
The plates were stored covered in the dark for approximately 30 min to permit equilibration and then the fluorescence polarization of the sample in each well read on a Jolley FPM-2 FP plate reader (Jolley Consulting and Research, Inc., Grayslake, Ill.) in accordance with the manufacturer's recommendations. The mean polarization (mP units)
for each competitor concentration was usually converted to % total binding by reference to the control values and plotted (y) vs. log molar final concentration of competitor (x). Non-linear least square analysis was used to fit the curve and extract the IC50 using the following equation:
y=M1+(M4−M1)/(1+exp(M2*(M3−x)))
where M3 is the IC50. For incomplete curves the IC50 was determined by interpolation.

Row | Compound | fold loss in affinity (vs rapamycin) [1] | pIC50 (rapamycin C24 analogs, Table 4) | fold loss in affinity (cf rapamycin) [2] | pIC50 (C7 rapalogs) | also measured
1 | CON=C1CC(C(C)CC2CCC(O)C(OC)C2)OC(=O)C2CCCCN2C(=O)C(=O)C2(O)OC(CCC2C)CC(OC)C(C)=CC=CC=CC(C)CC(C)C(=O)C(OC)C(O)C(C)=CC1C (single isomer, unassigned) [Compound 6, Rapamycin (E and Z)-24-(O-methyloxime)] | 190 | 6.36 |  |  | 
2 | COC1CC2CCC(C)C(O)(O2)C(=O)C(=O)N2CCCCC2C(=O)OC(C(C)CC2CCC(O)C(OC)C2)CC(=NOCC(=O)O)C(C)C=C(C)C(O)C(OC)C(=O)C(C)CC(C)C=CC=CC=C1C (single isomer, unassigned) [Compound 13, Rapamycin (E and Z)-24-(O-carboxymethyloxime)] | 3461 | 5.10 |  |  | 
3 | COC1CC2CCC(C)C(O)(O2)C(=O)C(=O)N2CCCCC2C(=O)OC(C(C)CC2CCC(O)C(OC)C2)CC(=NOCC(=O)O)C(C)C=C(C)C(O)C(OC)C(=O)C(C)CC(C)C=CC=CC=C1C (single isomer, unassigned) [Compound 14, Rapamycin (E and Z)-24-(O-carboxymethyloxime)] | 1022 | 5.63 |  |  | 
4 | COC1CC2CCC(C)C(O)(O2)C(=O)C(=O)N2CCCCC2C(=O)OC(C(C)CC2CCC(O)C(OC)C2)CC(=NOCC(N)=O)C(C)C=C(C)C(O)C(OC)C(=O)C(C)CC(C)C=CC=CC=C1C (single isomer, unassigned) [Compound 15, Rapamycin (E and Z)-24-(O-carboxamidomethyloxime)] | 500 | 5.94 |  |  | 
5 | COC1CC2CCC(C)C(O)(O2)C(=O)C(=O)N2CCCCC2C(=O)OC(C(C)CC2CCC(O)C(OC)C2)CC(=NOCC(N)=O)C(C)C=C(C)C(O)C(OC)C(=O)C(C)CC(C)C=CC=CC=C1C (single isomer, unassigned) [Compound 16, Rapamycin (E and Z)-24-(O-carboxamidomethyloxime)] | 88.7 | 6.69 |  |  | 
6 | COc1ccc(C2CC3CCC(C)C(O)(O3)C(=O)C(=O)N3CCCCC3C(=O)OC(C(C)CC3CCC(O)C(OC)C3)CC(=O)C(C)C=C(C)C(O)C(OC)C(=O)C(C)CC(C)C=CC=CC=C2C)c(OC)c1 (single isomer, unassigned) [Compound 42] |  |  | 1.0 | 8.66 | 
7 | COc1ccc(C2CC3CCC(C)C(O)(O3)C(=O)C(=O)N3CCCCC3C(=O)OC(C(C)CC3CCC(O)C(OC)C3)CC(=O)C(C)C=C(C)C(O)C(OC)C(=O)C(C)CC(C)C=CC=CC=C2C)c(OC)c1 (single isomer, unassigned) [Compound 43] |  |  | 8.7 | 7.70 | 
8 | CCO/N=C1/C[C@@H]([C@H](C)C[C@@H]2CC[C@@H](O)[C@H](OC)C2)OC(=O)[C@@H]2CCCCN2C(=O)C(=O)[C@]2(O)O[C@@H](CC[C@H]2C)C[C@H](OC)/C(C)=C/C=C/C=C/[C@@H](C)C[C@@H](C)C(=O)[C@H](OC)[C@H](O)/C(C)=C/[C@H]1C [Compound 7, Rapamycin (E and Z)-24-(O-ethyloxime)] | 1287 | 5.53 |  |  | 
9 | COC1CC2CCC(C)C(O)(O2)C(=O)C(=O)N2CCCCC2C(=O)OC(C(C)CC2CCC(O)C(OC)C2)CC(=NOCC(C)C)C(C)C=C(C)C(O)C(OC)C(=O)C(C)CC(C)C=CC=CC=C1C (stereo not shown) [Compound 10, Rapamycin (E and Z)-24-(O-isobutyloxime)] | 890 |  |  |  | 
10 | CO[C@H]1C[C@@H]2CC[C@@H](C)[C@@](O)(O2)C(=O)C(=O)N2CCCC[C@H]2C(=O)O[C@H]([C@H](C)C[C@@H]2CC[C@@H](O)[C@H](OC)C2)C/C(=N\OCc2ccccc2)[C@H](C)/C=C(\C)[C@@H](O)[C@@H](OC)C(=O)[C@H](C)C[C@H](C)/C=C/C=C/C=C/1C [Compound 12, apamycin (E and Z)-24-(O-benzyloxime)] | 616 | 5.85 |  |  | 
11 | COC1CC2CCC(C)C(O)(O2)C(=O)C(=O)N2CCCCC2C(=O)OC(C(C)CC2CCC(O)C(OC)C2)C/C(=N/O)C(C)C=C(C)C(O)C(OC)C(=O)C(C)CC(C)C=CC=CC=C1C (stereo not shown) [Compound 17] | 269 | 6.21 |  |  | 
12 | COC1CC2CCC(C)C(O)(O2)C(=O)C(=O)N2CCCCC2C(=O)OC(C(C)CC2CCC(O)C(OC)C2)C/C(=N\O)C(C)C=C(C)C(O)C(OC)C(=O)C(C)CC(C)C=CC=CC=C1C (stereo not shown) [Compound 18] | 25.7 | 7.23 |  |  | 
13 | COC1CC2CCC(C)C(O)(O2)C(=O)C(=O)N2CCCCC2C(=O)OC(C(C)CC2CCC(O)C(OC)C2)C/C(=N/OC(C)(C)C)C(C)C=C(C)C(O)C(OC)C(=O)C(C)CC(C)C=CC=CC=C1C (stereo not shown) [Compound 19] | >13043 | < 4.52 |  |  | 
14 | COC1CC2CCC(C)C(O)(O2)C(=O)C(=O)N2CCCCC2C(=O)OC(C(C)CC2CCC(O)C(OC)C2)C/C(=N\OC(C)(C)C)C(C)C=C(C)C(O)C(OC)C(=O)C(C)CC(C)C=CC=CC=C1C (stereo not shown) [Compound 20] | 1046 | 5.62 |  |  | 
15 | CCOC1C[C@@H]2CC[C@@H](C)[C@@](O)(O2)C(=O)C(=O)N2CCCC[C@H]2C(=O)OC([C@H](C)C[C@@H]2CC[C@@H](O)[C@H](OC)C2)CC(=O)[C@H](C)/C=C(\C)[C@@H](O)[C@@H](OC)C(=O)[C@H](C)C[C@H](C)/C=C/C=C/C=C/1C (stereo partly shown) [Compound 27] |  |  | 1.1 | 8.59 | 
16 | CCOC1C[C@@H]2CC[C@@H](C)[C@@](O)(O2)C(=O)C(=O)N2CCCC[C@H]2C(=O)OC([C@H](C)C[C@@H]2CC[C@@H](O)[C@H](OC)C2)CC(=O)[C@H](C)/C=C(\C)[C@@H](O)[C@@H](OC)C(=O)[C@H](C)C[C@H](C)/C=C/C=C/C=C/1C (stereo partly shown) [Compound 28] |  |  | 1.6 | 8.43 | 
17 | CO[C@@H]1C[C@H](C[C@@H](C)[C@@H]2CC(=O)[C@H](C)/C=C(\C)[C@@H](O)[C@@H](OC)C(=O)[C@H](C)C[C@H](C)/C=C/C=C/C=C(\C)[C@@H](OC(C)C)C[C@@H]3CC[C@@H](C)[C@@](O)(O3)C(=O)C(=O)N3CCCC[C@H]3C(=O)O2)CC[C@H]1O [Compound 29] |  |  | 1.0 | 8.66 | 
18 | COC(=O)N[C@@H]1C[C@@H]2CC[C@@H](C)[C@@](O)(O2)C(=O)C(=O)N2CCCC[C@H]2C(=O)O[C@H]([C@H](C)C[C@@H]2CC[C@@H](O)[C@H](OC)C2)CC(=O)[C@H](C)/C=C(\C)[C@@H](O)[C@@H](OC)C(=O)[C@H](C)C[C@H](C)/C=C/C=C/C=C/1C [Compound 31] |  |  | 1.1 | 8.59 | 
19 | COC(=O)N[C@H]1C[C@@H]2CC[C@@H](C)[C@@](O)(O2)C(=O)C(=O)N2CCCC[C@H]2C(=O)O[C@H]([C@H](C)C[C@@H]2CC[C@@H](O)[C@H](OC)C2)CC(=O)[C@H](C)/C=C(\C)[C@@H](O)[C@@H](OC)C(=O)[C@H](C)C[C@H](C)/C=C/C=C/C=C/1C [Compound 32] |  |  | 1.9 | 8.37 | 
20 | CO[C@@H]1C[C@H](C[C@@H](C)[C@@H]2CC(=O)[C@H](C)/C=C(\C)[C@@H](O)[C@@H](OC)C(=O)[C@H](C)C[C@H](C)/C=C/C=C/C=C(\C)[C@@H](NS(C)(=O)=O)C[C@@H]3CC[C@@H](C)[C@@](O)(O3)C(=O)C(=O)N3CCCC[C@H]3C(=O)O2)CC[C@H]1O [Compound 33] |  |  | 1.1 | 8.60 | 
21 | CO[C@@H]1C[C@H](C[C@@H](C)[C@@H]2CC(=O)[C@H](C)/C=C(\C)[C@@H](O)[C@@H](OC)C(=O)[C@H](C)C[C@H](C)/C=C/C=C/C=C(\C)[C@@H](c3ccco3)C[C@@H]3CC[C@@H](C)[C@@](O)(O3)C(=O)C(=O)N3CCCC[C@H]3C(=O)O2)CC[C@H]1O [Compound 34] |  |  | 12 |  | IC50 (C7 rapalogs): 28 nM
22 | CO[C@@H]1C[C@H](C[C@@H](C)[C@@H]2CC(=O)[C@H](C)/C=C(\C)[C@@H](O)[C@@H](OC)C(=O)[C@H](C)C[C@H](C)/C=C/C=C/C=C(\C)[C@H](c3ccco3)C[C@@H]3CC[C@@H](C)[C@@](O)(O3)C(=O)C(=O)N3CCCC[C@H]3C(=O)O2)CC[C@H]1O [Compound 35] |  |  | 13 |  | IC50 (C7 rapalogs): 29 nM
23 | CO[C@@H]1C[C@H](C[C@@H](C)[C@@H]2CC(=O)[C@H](C)/C=C(\C)[C@@H](O)[C@@H](OC)C(=O)[C@H](C)C[C@H](C)/C=C/C=C/C=C(\C)[C@@H](c3ccc(C)s3)C[C@@H]3CC[C@@H](C)[C@@](O)(O3)C(=O)C(=O)N3CCCC[C@H]3C(=O)O2)CC[C@H]1O [Compound 36] |  |  |  |  | fold loss in affinity (cf rapamycin): 1.6; IC50: 3.7 nM
24 | CO[C@@H]1C[C@H](C[C@@H](C)[C@@H]2CC(=O)[C@H](C)/C=C(\C)[C@@H](O)[C@@H](OC)C(=O)[C@H](C)C[C@H](C)/C=C/C=C/C=C(\C)[C@H](c3ccc(C)s3)C[C@@H]3CC[C@@H](C)[C@@](O)(O3)C(=O)C(=O)N3CCCC[C@H]3C(=O)O2)CC[C@H]1O [Compound 37] |  |  |  |  | fold loss in affinity (cf rapamycin): 1.9; IC50: 4.3 nM
25 | CCc1ccc([C@H]2C[C@@H]3CC[C@@H](C)[C@@](O)(O3)C(=O)C(=O)N3CCCC[C@H]3C(=O)O[C@H]([C@H](C)C[C@@H]3CC[C@@H](O)[C@H](OC)C3)CC(=O)[C@H](C)/C=C(\C)[C@@H](O)[C@@H](OC)C(=O)[C@H](C)C[C@H](C)/C=C/C=C/C=C/2C)s1 [Compound 38] |  |  | 1.1 | 8.60 | 
